{"source": "patent US6680307B1", "about": "“Use of ibandronate for promoting osseointegration of endoprostheses” (Roche Diagnostics GmbH, priority 1998, dated 2004)", "key": {"bone-tooth implant": {"tested_on": "bone-tooth implant", "conditions": "treatment for 4 weeks (1 week before the operation and 3 weeks after); cited from earlier work"}, "periprosthetic bone loss": {"tested_on": "periprosthetic bone loss", "conditions": "treatment with higher doses; cited from earlier work"}, "[1]": {"tested_on": "titanium implants and hydroxyl apatite-coated implants in the bone of 6-month old rats", "test": "Osseointegration of implants in rat femur at a defined time, daily versus bolus administration (Example 2)", "format": "in vivo", "method": "(§1) 6-month old female Spregue-Dawley rats were kept in cages and subjected to a 12-hour day and night rhythm. They had free access to food and water. The animals were kept and fed in accordance with legal regulations and the research was carried out with the approval and under the supervision of the Darmstadt Governmental Presidium.\n(§2) The animals were divided at random among the various test groups. They were anaethesized by intraperitoneal administration of ketamine (75 mg/kg) and xylazine (5 mg/kg). Both back legs were sharped and disinfected with Betaisadonna solution. Medioparapatellar arthrotomy of the knee joint was carried out under aseptic conditions and the patella was laterally dislocated. The medullary canal was opened distally in the intercondylar notch and the canal was drilled with a 1.0 mm diameter Kirchner wire down to the proximal metaphysis of the femur. A titanium Kirchner wire was then inserted into the right femur and a hydroxyl apatite-coated Kirchner wire into the left femur as far as the proximal metaphysis. The access hole was closed with bone wax, the patella was replaced, the extensor apparatus of the refined leg was reconstructed, the soft tissue was adapted and the skin was closed by an intracutaneous seam. The back legs were then tested for normal post-operative movement. The animals were at liberty to move freely in their cages and the activity and the load on the hind legs was checked daily.\n(§3) Ibandronate or 0.9% NaCl was administered daily as per Examples 1 and 2. After the preset treatment time the animals were euthanased in a carbon dioxide chamber and directly afterwards the two femurs were taken out, completely freed from soft tissue and fixed in alcohol for subsequent histerlogical treatment. […] Particular attention was given to the areas where a change in the bone occurred such as an increase or decrease in trabecular bone, a change in bone density, loosening seams on the implant, periostal or endostal changes. Evaluation in this case was purely descriptive.\n(§4) Description of production of preparations by the cut microsection technique for producing histological sections of conventional non-cuttable tissue after Prof. Donath. (K. Donath, G. Breuner: A method for the study of undecalcified bones and teeth with attached soft tissue. The Saege-Schliff (sawing and grinding) technique., J. Oral Pathology 1982, 11:318-26). […]\n(§5) Histological investigation of bones under the optical microscope gives knowledge about the overall structure and the distribution of bone components. […] Quantitative evaluation of the results was by histomorphometry.\n(§6) The bone-covered area on the metal implant was shown and calculated by histomorphometry, using special software. […]"}, "[2]": {"tested_on": "titanium implants and hydroxyl apatite-coated implants in the bone of 6 month-old Sprague Dawley rats", "test": "Time sequence of osseointegration of implants in rat femur (Example 1, histomorphometry)", "format": "in vivo", "method": "as §1, §2, §3, §4, §5, §6"}}}
{"molecule": "O=P(O)(O)C(Cl)(Cl)P(=O)(O)O", "note": "[Clodronate]", "values": [{"measurement": "Osteogenesis (bone formation) compared with untreated patients", "setting": "bone-tooth implant", "result": "more intensive"}]}
{"molecule": "NCCCC(O)(P(=O)(O)O)P(=O)(O)O", "note": "[alendronate]", "values": [{"measurement": "Bone resorption", "setting": "periprosthetic bone loss", "result": "considerably slowed down"}]}
{"molecule": "CCCCCN(C)CCC(O)(P(=O)(O)O)P(=O)(O)O", "note": "[ibandronate, 1-hydroxy-3-(N-methyl-N-pentyl)aminopropyl-1,1-diphosphonic acid]", "values": [{"measurement": "Increase in osseointegration compared with the control group", "setting": "[1]; 2a: s.c. 25 μg FAE/kg/d for 15-20 days", "result": 50, "unit": "%"}, {"measurement": "Increase in osseointegration compared with the control group", "setting": "[1]; 2b: s.c. bolus administration, 25 μg FAE/kg/d", "result": 50, "unit": "%"}, {"measurement": "Difference in osseointegration between bolus-treated groups and control group", "setting": "[1]; 2b: s.c. bolus administration, total dose of 1, 5 and 25 μg FAE/kg/d", "result": "Very significant differences"}, {"measurement": "Difference in osseointegration between bolus administration and cumulative administration", "setting": "[1]; 2c: bolus versus cumulative administration over the entire period", "result": "No significant differences"}, {"measurement": "Temporal advantage after treatment versus untreated group", "setting": "[2]; 25 μg FAE/kg/d daily s.c.", "result": "more than 50%"}, {"measurement": "Time to complete integration of the implant", "setting": "[2]; 25 μg FAE/kg/d daily s.c., untreated group nearly complete ingrowth after 37 days", "result": 18, "unit": "days"}, {"measurement": "Time to complete integration", "setting": "[2]; daily dose of 20 to 30 μg/kg body weight (i.v. equivalent)", "result": "15 to 20", "unit": "days"}, {"measurement": "Osseointegration compared with the untreated group", "setting": "[2]; daily subcutaneous ibandronate after implantation, rats", "result": "appreciably improved"}]}
